pKd: −log10 of the molar value.
How the values were obtained:
[1] = test system: RAR gamma; assay: Transactivation test (luciferase reporter, apparent Kd by Schild regression against a reference antagonist), RAR gamma; format: cell-based; conditions: statement in words, from the Kdapp values of the transactivation test
Procedure: (§1) The activation of the receptors by an agonist (activator) in HeLa cells results in the expression of a reporter gene, luciferase, which, in the presence of a substrate, generates light. It is thus possible to measure the activation of the receptors by quantifying the luminescence produced after incubation of the cells in the presence of a reference antagonist. The activating products displace the antagonist from its site, thus allowing activation of the receptor. The activity is measured by quantifying the increase in the light produced. This measurement makes it possible to determine the activator activity of the compound that can be used in the invention.
(§2) In this study, a constant which is the affinity of the molecule for the receptor is determined. Since this value can fluctuate according to the basal activity and the expression of the receptor, it is designated apparent Kd (KdApp).
(§3) In order to determine this constant, “cross curves” of the test product (4′-(3′-hydroxypropyl)-3′-(5,5,8,8-tetramethyl-5,6,7,8-tetrahydronaphthalen-2-yl)biphenyl-4-carboxylic acid and 4′-(2,3-dihydroxypropyl)-3′-(5,5,8,8-tetramethyl-5,6,7,8-tetrahydronaphthalen-2-yl)biphenyl-4-carboxylic acid), against a reference antagonist otherwise known as reference ligand, 4-(5,5-dimethyl-8-p-tolyl-5,6-dihydronaphthalen-2-ylethynyl)benzoic acid, are produced. The test product is used at 10 concentrations and the reference antagonist at 7 concentrations. In each well (of a 96-well plate), the cells are in contact with one concentration of the test product and one concentration of the reference antagonist. […]
(§4) These cross curves make it possible to determine the AC50 values (concentration at which 50% activation of the receptor is observed) of the reference ligand at various concentrations of test product. These AC50 values are used to calculate the Schild regression by plotting a straight line corresponding to the Schild equation (“Quantitation in receptor pharmacology” Terry P. Kenakin, Receptors and Channels, 2001, 7, 371-385).
(§5) In the case of an agonist, the AC50 is calculated by plotting the curve of the product at the concentration of the reference ligand giving 80% activation. The percentage activation which corresponds to the maximum level of activity obtained is also measured. […]
(§6) The culture medium is removed by turning the plates over, and […] of a 1:1 PBS (phosphate buffered solution)/luciferin mixture are added to each well. After 5 minutes, the plates are read using the luminescence reader.

[2] = molecular target: T1, RAR gamma (Homo sapiens, UniProt P13631); assay: as above; format: cell-based; conditions: HeLa stable transfectants, ERE-βGlob-Luc reporter, RAR gamma; apparent Kd; read-out: RAR gamma Kdapp
T1 construct: RAR gamma Kdapp; apparent Kd; It drives the ERE-βGlob-Luc reporter
T1 sequence (P13631 185-419 limits assumed): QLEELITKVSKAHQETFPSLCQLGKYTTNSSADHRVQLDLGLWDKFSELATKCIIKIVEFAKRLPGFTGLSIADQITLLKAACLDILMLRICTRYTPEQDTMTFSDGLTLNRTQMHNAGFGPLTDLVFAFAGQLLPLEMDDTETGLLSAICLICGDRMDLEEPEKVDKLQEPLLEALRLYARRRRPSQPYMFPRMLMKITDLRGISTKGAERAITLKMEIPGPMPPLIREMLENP
Procedure: as §1, §2, §3, §4, §5, §6

[3] = molecular target: T2, RAR beta (Homo sapiens, UniProt P10826); assay: Transactivation test (luciferase reporter, apparent Kd by Schild regression against a reference antagonist), RAR beta; format: cell-based; conditions: HeLa stable transfectants, ERE-βGlob-Luc reporter, read-out: RAR beta Kdapp
T2 construct: It drives the ERE-βGlob-Luc reporter
T2 sequence (P10826 183-417 limits assumed): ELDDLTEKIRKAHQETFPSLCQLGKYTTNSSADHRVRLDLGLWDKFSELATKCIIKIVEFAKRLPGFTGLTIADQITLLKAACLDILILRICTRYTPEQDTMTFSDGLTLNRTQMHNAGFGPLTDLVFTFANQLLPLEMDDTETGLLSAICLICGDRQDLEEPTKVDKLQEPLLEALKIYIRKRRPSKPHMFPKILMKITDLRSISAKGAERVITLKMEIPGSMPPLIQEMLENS
Procedure: as §1
(§7) In this study, a constant which is the affinity of the molecule for the receptor is determined. […]
as §4
(§8) In the case of an agonist, the AC50 is calculated by plotting the curve of the product at the concentration of the reference ligand giving 80% activation. […]

[4] = molecular target: T3, RAR alpha (Homo sapiens, UniProt P10276); assay: Transactivation test (luciferase reporter, apparent Kd by Schild regression against a reference antagonist), RAR alpha; format: cell-based; conditions: HeLa stable transfectants, ERE-βGlob-Luc reporter, read-out: RAR alpha Kdapp
T3 construct: It drives the ERE-βGlob-Luc reporter
T3 sequence (P10276 183-417 limits assumed): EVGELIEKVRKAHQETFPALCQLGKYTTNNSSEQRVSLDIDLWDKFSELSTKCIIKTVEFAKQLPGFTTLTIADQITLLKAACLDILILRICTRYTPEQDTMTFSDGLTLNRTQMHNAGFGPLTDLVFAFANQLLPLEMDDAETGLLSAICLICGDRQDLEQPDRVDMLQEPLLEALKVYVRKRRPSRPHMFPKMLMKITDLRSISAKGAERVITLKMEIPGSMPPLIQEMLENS
Procedure: as §1, §7, §4, §8

Compound | selectivity for the RAR gamma receptor subtype in comparison with RAR alpha and RAR beta [1] | pKd [2] | melting point | pKd [3] | pKd [4]
CC1(C)CCC(C)(C)c2cc(-c3cc(-c4ccc(C(=O)O)cc4)ccc3CCCO)ccc21 [Example 1, 4′-(3-hydroxypropyl)-3′-(5,5,8,8-tetramethyl-5,6,7,8-tetrahydronaphthalen-2-yl)biphenyl-4-carboxylic acid] | better selectivity of these compounds for the RAR gamma receptor subtype | 10.00 | 203 °C | 8.70 | 7.82
CC1(C)CCC(C)(C)c2cc(-c3cc(-c4ccc(C(=O)O)cc4)ccc3CC(O)CO)ccc21 (stereo not drawn) [Example 2, 4′-(2,3-dihydroxypropyl)-3′-(5,5,8,8-tetramethyl-5,6,7,8-tetrahydronaphthalen-2-yl)biphenyl-4-carboxylic acid] | better selectivity of these compounds for the RAR gamma receptor subtype | 9.30 |  | 7.82 | 7.22

Reference: US8106235B2, “Biphenyl compound selective agonists of gamma RAR receptors” (Galderma Research & Development, priority 2005, dated 2012)
